Patent US11801242B2, “Compositions and methods for adjuvant cancer therapeutics” (DUKE UNIVERSITY, priority 2018, dated 2023)

System: HT1080 cells
Test: Gapped plasmid TLS assay, cisplatin 1,2-GG lesion
Assay type: cell-based, human
Conditions: pre-treatment with RE01 1.5, 3.0 and 15.0 μM for 24 hours
Excerpt: The double stranded plasmid pUC19 with ampicillin resistance was modified to include the oligonucleotide containing cisplatin 1,2-GG lesion on one strand and a gapped region across it. Briefly, the 16mer cisplatin-containing oligonucleotide was flanked by two 21mer regular DNA strands (5′-[…]-3′ (SEQ ID NO: 2) on the 5′ end and 5′-[…]-3′ (SEQ ID NO: 3) on the 3′ end) and elongated to a 58mer lesion-containing single strand DNA. After linearizing the plasmid by restriction endonucleases BstAPI and BspQI (New England Biolabs), the 58mer oligonucleotide was mixed with two scaffolds (5′-TGCATGCGCGCTACGACG-3′ (SEQ ID NO: 4) and 5′-[…]-3′ (SEQ ID NO: 5)) and ligated with the linear pUC19 plasmid to build up a circular plasmid containing a site-specific cisplatin 1,2-GG lesion and a 16-nucleotide gap on the opposite strand.
A competitor gapped plasmid that was three bases longer (started from a 19mer oligonucleotide 5′-CTCTCTAGGCTCACTTCTA-3′ (SEQ ID NO: 6)) than the lesion-containing plasmid was used as the internal control. The cells were pre-treated with either DMSO or RE01 (1.5, 3.0 and 15.0 μM) for 24 hours. […] The gap-filling efficiency by TLS was calculated by dividing the output ratio obtained from HPLC-MS with the input ratio (4:1) and the results were normalized to 100%.

CC(C)CC(=O)c1c(Nc2ccc(Cl)cc2Cl)[nH]c2c(Cl)ccc([N+](=O)[O-])c2c1=O [RE01, 8-chloro-2-((2,4-dichlorophenyl)amino)-3-(3-methylbutanoyl)-5-nitroquinolin-4(1H)-one]
bypass efficiency of 1,2-GG cisplatin DNA adduct: suppresses
